Values after ≈ are worked out from the molar mass of the structure shown. A value given as a limit tells only on which side of the number the result lay.

What all share (format): functional
Assay [1] relates to Enterococcus faecium. As to the kind of experiment: Tested in vitro for its antibacterial activity against vancomycin sensitive Enterococcus faecium (RLA1).
The test system of assay [2] is Enterococcus faecalis. As to the kind of experiment: Tested in vitro for its antibacterial activity against vancomycin resistant Enterococcus faecalis (MB4877).
In assay [3] the test system is Staphylococcus aureus. As to the kind of experiment: Tested in vitro for its antibacterial activity against methicillin resistant Staphylococcus aureus (Mh76).
In assay [4] the test system is Staphylococcus aureus. As to the kind of experiment: Tested in vitro for its antibacterial activity against methicillin resistant Staphylococcus aureus (COL).
Assay [5] has as its system Staphylococcus aureus. As to the kind of experiment: In vitro antibacterial activity against vancomycin intermediate resistant Staphylococcus aureus (CL5706).
Assay [6] concerns Enterococcus faecalis. As to the kind of experiment: Tested in vitro for its antibacterial activity against vancomycin sensitive Enterococcus faecalis (MB2864).
Assay [7] deals with Staphylococcus aureus. As to the kind of experiment: In vitro antibacterial activity against vancomycin intermediate resistant Staphylococcus aureus (CL5705).
For assay [8], the system named is Enterococcus faecium. The experiment in a line: Tested in vitro for its antibacterial activity against vancomycin resistant Enterococcus faecium (MB5244).
Assay [9] has as its system Enterococcus faecium. The experiment in a line: Tested in vitro for its antibacterial activity against vancomycin resistant Enterococcus faecium (CL4931).
Assay [10] concerns Staphylococcus aureus. The experiment in a line: Tested in vitro for its antibacterial activity against methicillin sensitive Staphylococcus aureus (MB2985).
In assay [11] the test system is Staphylococcus aureus. The experiment in a line: Tested in vitro for its antibacterial activity against methicillin resistant Staphylococcus aureus (MH76).

`CN[C@H](CC(C)C)C(=O)N[C@H]1C(=O)N[C@@H](CC(N)=O)C(=O)N[C@H]2C(=O)N[C@H]3C(=O)N[C@H](C(=O)N[C@H](C(=O)O)c4cc(O)cc(O)c4-c4cc3ccc4O)[C@H](O)c3ccc(c(Cl)c3)Oc3cc2cc(c3OC2OC(C[N+](C)(C)CCN(C)C)C(O)C(O)C2OC2CC(C)(NCc3ccc(OCc4ccc(Cl)c(Cl)c4)cc3)C(O)C(C)O2)Oc2ccc(cc2Cl)[C@H]1O` (some centres undefined): the MIC (as a rule, the lowest concentration that inhibits growth of the organism) in the assay with Enterococcus faecium [1] was 1 µg/mL; in the assay with Enterococcus faecalis [2] it was over 64 µg/mL; with Staphylococcus aureus [3] it was 2 µg/mL; in the assay with Staphylococcus aureus [4], 2 µg/mL; in the assay on Staphylococcus aureus [5], 4 µg/mL; against Enterococcus faecalis [6] it was 4 µg/mL. For the same molecule, the MIC in the assay on Staphylococcus aureus [7] is 2 µg/mL; with Enterococcus faecium [8], 8 µg/mL; against Enterococcus faecium [9], over 64 µg/mL; against Staphylococcus aureus [10], 2 µg/mL.
`CN[C@H](CC(C)C)C(=O)N[C@H]1C(=O)N[C@@H](CC(N)=O)C(=O)N[C@H]2C(=O)N[C@H]3C(=O)N[C@H](C(=O)N[C@H](C(=O)O)c4cc(O)cc(O)c4-c4cc3ccc4O)[C@H](O)c3ccc(c(Cl)c3)Oc3cc2cc(c3OC2OC(C[N+]34CCN(CC3)CC4)C(O)C(O)C2OC2CC(C)(NCc3ccc(OCc4ccc(Cl)c(Cl)c4)cc3)C(O)C(C)O2)Oc2ccc(cc2Cl)[C@H]1O` (some centres undefined): the MIC came out at 0.5 µg/mL in the assay on Enterococcus faecium [1]; 8 µg/mL against Enterococcus faecalis [2]; 1 µg/mL against Staphylococcus aureus [4]; 2 µg/mL in the assay with Staphylococcus aureus [5]; 2 µg/mL with Enterococcus faecalis [6]; 2 µg/mL against Staphylococcus aureus [7]. The MIC against Enterococcus faecium [8] is 1 µg/mL; against Staphylococcus aureus [11], 1 µg/mL; against Enterococcus faecium [9], over 32 µg/mL; against Staphylococcus aureus [10], 1 µg/mL.
With `CN[C@H](CC(C)C)C(=O)N[C@H]1C(=O)N[C@@H](CC(N)=O)C(=O)N[C@H]2C(=O)N[C@H]3C(=O)N[C@H](C(=O)N[C@H](C(=O)O)c4cc(O)cc(O)c4-c4cc3ccc4O)[C@H](O)c3ccc(c(Cl)c3)Oc3cc2cc(c3OC2OC(CN(C)C)C(O)C(O)C2OC2CC(C)(NCc3ccc(OCc4ccc(Cl)c(Cl)c4)cc3)C(O)C(C)O2)Oc2ccc(cc2Cl)[C@H]1O` (some centres undefined), the minimal inhibitory concentration (MIC) against Enterococcus faecium [1] is at most 0.03 µg/mL; against Enterococcus faecalis [2], 16 µg/mL (≈ 9.19 µM); in the assay on Staphylococcus aureus [4], 0.5 µg/mL (≈ 0.287 µM); against Staphylococcus aureus [5] it was 0.5 µg/mL (≈ 0.287 µM); against Enterococcus faecalis [6], 1 µg/mL (≈ 0.574 µM); in the assay on Staphylococcus aureus [7] it was 1 µg/mL (≈ 0.574 µM). Further, the minimal inhibitory concentration (MIC) is 1 µg/mL (≈ 0.574 µM) in the assay on Enterococcus faecium [8], 0.25 µg/mL (≈ 0.144 µM) in the assay with Staphylococcus aureus [11], 32 µg/mL (≈ 18.4 µM) against Enterococcus faecium [9] and at most 0.03 µg/mL in the assay on Staphylococcus aureus [10].
As for `CN[C@H](CC(C)C)C(=O)N[C@H]1C(=O)N[C@@H](CC(N)=O)C(=O)N[C@H]2C(=O)N[C@H]3C(=O)N[C@H](C(=O)N[C@H](C(=O)O)c4cc(O)cc(O)c4-c4cc3ccc4O)[C@H](O)c3ccc(c(Cl)c3)Oc3cc2cc(c3O[C@@H]2O[C@H](CO)[C@@H](O)[C@H](O)[C@H]2O[C@H]2C[C@](C)(N)[C@H](O)[C@H](C)O2)Oc2ccc(cc2Cl)[C@H]1O` [VANCOMYCIN], the minimal inhibitory concentration (MIC) in the assay on Enterococcus faecalis [2] was 2050 µg/mL (≈ 1410 µM); against Staphylococcus aureus [5], 8 µg/mL (≈ 5.52 µM); against Enterococcus faecium [8] it was 16 µg/mL (≈ 11 µM); in the assay on Enterococcus faecium [9], 2050 µg/mL (≈ 1410 µM).
For the molecule `CNCC1OC(Oc2c3cc4cc2Oc2ccc(cc2Cl)[C@@H](O)[C@@H](NC(=O)[C@@H](CC(C)C)NC)C(=O)N[C@@H](CC(N)=O)C(=O)N[C@H]4C(=O)N[C@H]2C(=O)N[C@H](C(=O)N[C@H](C(=O)O)c4cc(O)cc(O)c4-c4cc2ccc4O)[C@H](O)c2ccc(c(Cl)c2)O3)C(OC2CC(C)(NCc3ccc(OCc4ccc(Cl)c(Cl)c4)cc3)C(O)C(C)O2)C(O)C1O` (some centres undefined), the minimum inhibitory concentration (MIC) with Enterococcus faecium [1] was found to be 0.03 µg/mL (≈ 0.0174 µM); against Enterococcus faecalis [2], 4 µg/mL (≈ 2.32 µM); in the assay with Staphylococcus aureus [4], 0.12 µg/mL (≈ 0.0695 µM); against Staphylococcus aureus [5], 0.25 µg/mL (≈ 0.145 µM); in the assay with Enterococcus faecalis [6], 0.25 µg/mL (≈ 0.145 µM); against Staphylococcus aureus [7], 1 µg/mL (≈ 0.579 µM). For the same molecule, the minimal inhibitory concentration (MIC) in the assay with Enterococcus faecium [8] was 1 µg/mL (≈ 0.579 µM); in the assay with Staphylococcus aureus [11], 0.12 µg/mL (≈ 0.0695 µM); with Enterococcus faecium [9], 32 µg/mL (≈ 18.5 µM); against Staphylococcus aureus [10] it was at most 0.03 µg/mL.
On to `CN[C@H](CC(C)C)C(=O)N[C@H]1C(=O)N[C@@H](CC(N)=O)C(=O)N[C@H]2C(=O)N[C@H]3C(=O)N[C@H](C(=O)N[C@H](C(=O)O)c4cc(O)cc(O)c4-c4cc3ccc4O)[C@H](O)c3ccc(c(Cl)c3)Oc3cc2cc(c3OC2OC(C[N+](C)(C)C)C(O)C(O)C2OC2CC(C)(NCc3ccc(OCc4ccc(Cl)c(Cl)c4)cc3)C(O)C(C)O2)Oc2ccc(cc2Cl)[C@H]1O` (some centres undefined), for which the minimum inhibitory concentration (MIC) turned out to be 0.5 µg/mL in the assay on Enterococcus faecium [1]; 16 µg/mL against Enterococcus faecalis [2]; 0.5 µg/mL against Staphylococcus aureus [4]; 2 µg/mL in the assay on Staphylococcus aureus [5]; 1 µg/mL against Enterococcus faecalis [6]; 2 µg/mL in the assay with Staphylococcus aureus [7]. Further, the MIC with Enterococcus faecium [8] is 1 µg/mL; in the assay on Staphylococcus aureus [11], 0.5 µg/mL; in the assay on Enterococcus faecium [9], over 64 µg/mL; against Staphylococcus aureus [10], 0.5 µg/mL.
As to `CN[C@H](CC(C)C)C(=O)N[C@H]1C(=O)N[C@@H](CC(N)=O)C(=O)N[C@H]2C(=O)N[C@H]3C(=O)N[C@H](C(=O)N[C@H](C(=O)O)c4cc(O)cc(O)c4-c4cc3ccc4O)[C@H](O)c3ccc(c(Cl)c3)Oc3cc2cc(c3OC2OC(C[N+](C)(C)CCO)C(O)C(O)C2OC2CC(C)(NCc3ccc(OCc4ccc(Cl)c(Cl)c4)cc3)C(O)C(C)O2)Oc2ccc(cc2Cl)[C@H]1O` (some centres undefined), the minimum inhibitory concentration (MIC) with Enterococcus faecium [1] worked out at 0.5 µg/mL; in the assay with Enterococcus faecalis [2] it was 8 µg/mL; against Staphylococcus aureus [4], 1 µg/mL; against Staphylococcus aureus [5], 2 µg/mL; in the assay with Enterococcus faecalis [6] it was 2 µg/mL; in the assay with Staphylococcus aureus [7], 2 µg/mL. The MIC in the assay on Enterococcus faecium [8] is 4 µg/mL; against Staphylococcus aureus [11] it was 1 µg/mL; against Enterococcus faecium [9], over 64 µg/mL; in the assay on Staphylococcus aureus [10] it was 2 µg/mL.
Regarding `CN[C@H](CC(C)C)C(=O)N[C@H]1C(=O)N[C@@H](CC(N)=O)C(=O)N[C@H]2C(=O)N[C@H]3C(=O)N[C@H](C(=O)N[C@H](C(=O)O)c4cc(O)cc(O)c4-c4cc3ccc4O)[C@H](O)c3ccc(c(Cl)c3)Oc3cc2cc(c3OC2OC(C[N+](C)(C)Cc3ccccc3)C(O)C(O)C2OC2CC(C)(NCc3ccc(OCc4ccc(Cl)c(Cl)c4)cc3)C(O)C(C)O2)Oc2ccc(cc2Cl)[C@H]1O` (some centres undefined), the minimum inhibitory concentration (MIC) with Enterococcus faecium [1] is 0.25 µg/mL; against Enterococcus faecalis [2], 16 µg/mL; in the assay with Staphylococcus aureus [4] it was 0.5 µg/mL; in the assay on Staphylococcus aureus [5] it was 1 µg/mL; in the assay with Enterococcus faecalis [6], 2 µg/mL; in the assay with Staphylococcus aureus [7], 1 µg/mL. The minimum inhibitory concentration (MIC) is 1 µg/mL against Enterococcus faecium [8], 0.25 µg/mL in the assay with Staphylococcus aureus [11], over 64 µg/mL with Enterococcus faecium [9] and 0.25 µg/mL against Staphylococcus aureus [10].
